From US3932650A, “Trans-octahydropyridoindolobenzazepines as central nervous system depressants” (E. I. Du Pont de Nemours & Company, priority 1973, dated 1976) come the findings set out here.

Read-outs that look alike come from different tables or passages of the source.

Experiment [1] concerns locomotor activity. The experiment in a line: Decreased Locomotor Activity (L.M.A.), mouse. It counts as in vivo. As to conditions: mouse, po; minimal effective dose; read-out: L.M.A. MED. How it is done:
(§1) Decreased Locomotor Activity (L.M.A.)
(§2) This reaction sign is measured subjectively by observing how an animal behaves when it is removed from an observation cage and placed on a table top. […] The degree of stimulation by the observer needed to produce active locomotion is rated on an arbitrary scale. This ranges from a score of -1 where only a slight touch of the animal's body is required to a -4 where the animal is unresponsive or minimally responsive to the application of a pain stimulus (pressure at the base of the tail). The minimal effective dose (MED) is the lowest oral dose producting an obvious decrease of locomotor activity (with a score of at least -1). Groups of 3 mice are given decreasing oral doses at 0.5 log intervals (300, 100, 30. . .etc.) until no behavioral effects are evident. Decrease of locomotor activity is indicative of general central nervous system depressant activity.

The test system of experiment [2] is locomotor activity. Kind of experiment: Decreased Locomotor Activity (L.M.A.), rat. The note with it: po; minimal effective dose; read-out: L.M.A. MED. It counts as in vivo. The procedure: as §1, §2
The test system of experiment [3] is eyelid closure (ptosis). The experiment in a line: Ptosis, mouse. The experiment is classed as in vivo. The note with it: mouse, po; passive ptosis; read-out: Ptosis MED.
For experiment [4], the system named is eyelid closure (ptosis). Kind of experiment: Ptosis, rat. The experiment is classed as in vivo. The note with it: rat, po; passive ptosis; read-out: Ptosis MED. The text has this: Degree of eyelid closure is used as a measure of central nervous system depression. An animal is removed from its observation cage and allowed to remain outside the cage for 30 seconds. At the end of this time a rating of degree of eyelid closure is made on an arbitrary scale.

The subject of experiment [5] is catalepsy. The experiment in a line: Catalepsy, mouse. It counts as in vivo. The note with it: mouse, po; read-out: Catalepsy MED. From the text:
(§3) The ability of an animal to remain in an abnormal position is used as another indication of central nervous system depressant activity. A test animal is removed from its observation cage and positioned so that its hind legs are on the table top and its front legs rest on the side of the observation cage. If an animal maintains this position for at least 10 seconds, it is considered to be showing cataleptic behavior.

Experiment [6] relates to catalepsy. The experiment in a line: Catalepsy, rat. It counts as in vivo. As to conditions: rat, po; read-out: Catalepsy MED.
Source text: as §3

Experiment [7] relates to TBZ-induced ptosis. Kind of experiment: Tetrabenazine Antagonism (T.B.Z.A.), mouse. The experiment is classed as in vivo. The note with it: 1 h; mouse, po; TBZ 40 mg/kg s.c. one hour after compound; read-out: T.B.Z.A. ED50. The procedure:
(§4) Tetrabenazine Antagonism (T.B.Z.A.)
(§5) The tetrabenazine (TBZ) antagonism test is used to test for potential antidepressant-like activity in rodents. One hour after oral administration of a test compound, a 40 mg/kg dose of TBZ is given subcutaneously. Thirty minutes after TBZ administration, the mice are placed in the center of a circle; the diameter of the circle is twice the body length of the mouse or rat. After 30 seconds, a reading is made of the degree of ptosis and whether the animal has moved out of the circle. Animals that have received only TBZ will show marked ptosis and immobility. Tricyclic antidepressants of the imipramine type will antagonize the ptosis but not the immobility. Antidepressants of the amphetamine or monoamine oxidase inhibitory type will antagonize both the ptosis and immobility induced by TBZ. The ED50 is the dose producing antagonism of TBZ-induced ptosis, but not of TBZ-induced immobility, in 50% of the animals.

The test system of experiment [8] is TBZ-induced ptosis. The experiment in a line: Tetrabenazine Antagonism (T.B.Z.A.), rat. The experiment is classed as in vivo. The note with it: 1 h; rat, po; TBZ 40 mg/kg s.c. one hour after compound; read-out: T.B.Z.A. ED50. How it is done: as §4, §5
Experiment [9] has as its system fear / feeding in approach-avoidance conflict. Kind of experiment: Rat Conflict (Approach-Avoidance) Test. It counts as in vivo. The note with it: rat, po; after 1 or 2 hours; read-out: Conflict MED. The procedure:
Rat Conflict (Approach-Avoidance) Test (Conflict)
Results given in: mg/kg po/rat
Food deprived rats are trained to pass from one compartment to an adjacent one to obtain food. The training consists of 3 exposures to the test situation on day one of the experiment. The rats are given limited (1-2 hr) free access to food in their home cages on day one and are then food deprived for at least 18 hours. On day two of the experiment, the rats are given a control exposure to the test situation followed by a second exposure after one-half to 1 hour in which they are shocked after crossing and eating. Groups of 6-8 rats are then dosed orally with solvent or test compound and then re-exposed to the test situation after 1 or 2 hours.
Compounds showing minor tranquilizer (anxiolytic) activity in man such as diazepam and meprobamate produce an apparent decreased fear in the test animals so that they cross to obtain food despite having received a shock earlier. This effect is dose-related (and the MED is the minimum dose at which this effect is obtained); rats dosed with solvent only consistently show a high level of fear as evidenced by decreased mobility and absence of feeding when placed in the test situation after receiving a shock.

The subject of experiment [10] is conditioned avoidance response. The experiment in a line: Conditioned Avoidance Response (C.A.R.), mouse. It counts as in vivo. As to conditions: mouse, po; block of C.A.R. in 50% of animals; 1, 2, and 4 hours; read-out: C.A.R. ED50. How it is done: (§6) Mouse and Rat Conditioned Avoidance Response (C.A.R.):
(§7) Mice and rats are trained to jump out of a pit onto a ledge to avoid shock when presented with a light and sound conditioned stimulus. The animals are tested 1, 2, and 4 hours after administration of the test compound. Three to four dose levels and groups of 4-8 animals/dose are used. The ED50 is the dose producing a block of the C.A.R. in 50% of the animals. Blocking of the C.A.R. at non-toxic doses appears to correlate with major tranquilizer activity in man.

Experiment [11] relates to conditioned avoidance response. Kind of experiment: Conditioned Avoidance Response (C.A.R.), rat. The experiment is classed as in vivo. As to conditions: rat, po; block of C.A.R. in 50% of animals; 1, 2, and 4 hours; read-out: C.A.R. ED50. How it is done: as §6, §7
The test system of experiment [12] is conditioned avoidance response. Kind of experiment: Dog Conditioned Avoidance Response (C.A.R.). It counts as in vivo. As to conditions: Canis lupus familiaris; dog, po; 5 or more incorrect responses in 50% of animals; 1, 2, and 4 hours; read-out: C.A.R. ED50. How it is done:
Dog Conditioned Avoidance Response (C.A.R.):
Results given in: mg/kg po/dog
Dogs are trained to raise a forelimb when presented with a conditioned stimulus (light) in order to avoid an electric shock. Blocks of 10 trials are given to groups of 4 dogs during a pretreatment period and at 1, 2, and 4 hours after oral administration of the test compound. The ED50 values are calculated as the dose causing 50% of the animals to show 5 or more incorrect responses. Blocking of the C.A.R. at non-toxic doses appears to correlate with major tranquilizer activity in man.

Experiment [13] has as its system taming. The experiment in a line: Rhesus Monkey Taming Effects. It counts as in vivo. As to conditions: Macaca mulatta; rhesus monkey, po; read-out: Taming MED. How it is done:
Rhesus Monkey Taming Effects (Taming):
Results given in: mg/kg po/monkey
Compounds are administered orally to groups of 6 rhesus monkeys. The behavior of the animals is then evaluated by observational means. Taming effects are determined by the ability of the observer to approach and touch the monkey. Compounds with major tranquilizer activity in man can produce a state of passive tameness in the rhesus monkey wherein it can be touched without provoking any of the threatening or aggressive behavior seen in the normal animal. The MED is the minimal oral dose at which some taming effect can be observed.

Experiment [14] deals with phenyl-p-benzoquinone-induced writhing. The experiment in a line: Phenylquinone Writhing (P.Q.W.). The experiment is classed as in vivo, mouse. The note with it: 0.5 h; mouse, po; phenyl-p-benzoquinone 2.5 mg/kg i.p. 30 minutes after compound; read-out: P.Q.W. ED50. A general note: An intraperitoneal irritant provokes the stretching counted in writhing tests.
Experiment [15] deals with locomotor activity. The experiment in a line: LMA, comparison with chlorpromazine. It counts as in vivo. As to conditions: read-out: LMA (*ED50?).
The subject of experiment [16] is catalepsy. Kind of experiment: Catalepsy, comparison with chlorpromazine. It counts as in vivo. The note with it: read-out: Catalepsy (*ED50?).
Experiment [17] deals with eyelid closure (ptosis). Kind of experiment: Ptosis, comparison with chlorpromazine. The experiment is classed as in vivo. The note with it: read-out: Ptosis (*ED50?).

As for `c1ccc2c(c1)CCc1cccc3c1N2[C@@H]1CCN(CC2CC2)C[C@@H]31` (relative stereo) [Example 2, trans-3-(Cyclopropylmethyl)-1,2,3,4,4a,8,9,14a-octahydropyrido[4',3':2,3]indolo[1,7-ab][1]benzazepine], the minimal effective dose was found to be 3 mg/kg in experiment [1]; 1 mg/kg in experiment [2]; 10 mg/kg in [3]; 3 mg/kg in experiment [4]; 3 mg/kg in experiment [5]; 3 mg/kg in experiment [6]. Further, the minimal effective dose in experiment [9] was above 40 mg/kg; in [13] it was 1 mg/kg. In addition, the ED50 (in general, the dose at which the effect has come halfway, by size or by number of responders) in experiment [7] was above 100 mg/kg; in experiment [8], above 100 mg/kg; in experiment [10], 0.7 mg/kg; in [11] it was 0.7 mg/kg; in experiment [12], 3 mg/kg; in [14], 2.3 mg/kg.
Take `CC(C)CN1CC[C@@H]2[C@@H](C1)c1cccc3c1N2c1ccccc1CC3` (relative stereo) [Example 5, trans-1,2,3,4,4a,8,9,14a-Octahydro-3-isobutylpyrido[4',3':2,3]indolo[1,7-ab][1]benzazepine]: the minimal effective dose in experiment [1] was 2 mg/kg; in experiment [2], 4 mg/kg; in experiment [3] it was 8 mg/kg; in experiment [4], 5 mg/kg; in experiment [5], 2 mg/kg; in experiment [6], 6 mg/kg. In addition, the median effective dose (ED50) in experiment [14] was 1.75 mg/kg; in experiment [15] (species not given) it was 4 mg/kg; in experiment [16] (species not given), 6 mg/kg; in experiment [17] (species not given) it was 5 mg/kg.
Consider `CN(C)CCCN1c2ccccc2Sc2ccc(Cl)cc21` [Chlorpromazine], for which the values for the ED50 in experiment [15], in [16] and in experiment [17] were 5 mg/kg, 6 mg/kg and 6 mg/kg, respectively.
In the case of `CCN1CCc2c(c3cccc4c3n2-c2ccccc2CC4)C1` [ethyl hexahydro], the minimal effective dose was 30 mg/kg in [1]; 30 mg/kg in experiment [2]; 30 mg/kg in experiment [3]; above 300 mg/kg in experiment [4]; above 300 mg/kg in experiment [5]; above 300 mg/kg in experiment [6]. The minimal effective dose in experiment [9] was 20 mg/kg; in [13] it was above 20 mg/kg. Besides, the median effective dose (ED50) in [7] was above 100 mg/kg; in experiment [8] it was above 100 mg/kg; in experiment [10] it was above 40 mg/kg; in [11] it was above 40 mg/kg; in experiment [12], above 30 mg/kg.
Consider `CN1CCc2c(c3cccc4c3n2-c2ccccc2CC4)C1` [methyl hexahydro, 1,2,3,4,8,9-hexahydro-3-methylpyrido[4',3':2,3]indolo[1,7-ab][1]benzazepine], for which the minimal effective dose worked out at 10 mg/kg in experiment [1]; 30 mg/kg in [2]; 30 mg/kg in [3]; 30 mg/kg in experiment [4]; 300 mg/kg in experiment [5]; 100 mg/kg in experiment [6]. The minimal effective dose was determined as 20 mg/kg in [9] and 10 mg/kg in experiment [13]. The ED50 in [7] was above 100 mg/kg; in [8] it was above 100 mg/kg; in experiment [10], 20 mg/kg; in experiment [11] it was 30 mg/kg; in [12], above 30 mg/kg.
